Here are results for 4 compounds from patent US9034907B2, “Inhibitors of glutaminyl cyclase” (Probiodrug AG, priority 2007, dated 2015).

In one series the target is glutaminyl cyclase (QC) (Homo sapiens (Human), UniProt Q16769). The series is described as follows: QC inhibitor assay (fluorometric / spectrophotometric QC activity assay with inhibitor added). Particulars: 30° C.
Sequence of glutaminyl cyclase (QC) (Q16769 29-361): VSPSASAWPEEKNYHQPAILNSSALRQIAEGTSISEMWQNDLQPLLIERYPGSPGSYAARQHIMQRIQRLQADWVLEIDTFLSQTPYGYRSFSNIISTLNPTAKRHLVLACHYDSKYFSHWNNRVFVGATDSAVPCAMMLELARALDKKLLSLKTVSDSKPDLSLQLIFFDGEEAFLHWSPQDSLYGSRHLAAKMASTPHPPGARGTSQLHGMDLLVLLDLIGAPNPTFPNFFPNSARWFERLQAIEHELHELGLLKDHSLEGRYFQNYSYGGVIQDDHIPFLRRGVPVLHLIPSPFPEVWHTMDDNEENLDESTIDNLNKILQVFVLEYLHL

Experimental for glutaminyl cyclase (QC): All measurements were performed with a BioAssay Reader HTS-7000Plus for microplates (Perkin Elmer) at 30° C. QC activity was evaluated fluorometrically using H-Gln-βNA. The samples consisted of 0.2 mM fluorogenic substrate, 0.25 U pyroglutamyl aminopeptidase (Unizyme, Hørsholm, Denmark) in 0.2 M Tris/HCl, pH 8.0 containing 20 mM EDTA and an appropriately diluted aliquot of QC in a final volume of 250 μl. Excitation/emission wavelengths were 320/410 nm. The assay reactions were initiated by addition of glutaminyl cyclase. QC activity was determined from a standard curve of β-naphthylamine under assay conditions. One unit is defined as the amount of QC catalyzing the formation of 1 μmol pGlu-βNA from H-Gln-βNA per minute under the described conditions.
In a second fluorometric assay, QC was activity determined using H-Gln-AMC as substrate. Reactions were carried out at 30° C. utilizing the NOVOStar reader for microplates (BMG labtechnologies). […] The kinetic data were evaluated using GraFit software.
Samples consisted of the respective QC substrate, 0.3 mM NADH, 14 mM α-Ketoglutaric acid and 30 U/ml glutamate dehydrogenase in a final volume of 250 μl. […] All samples were measured at 30° C., using either the [sequence]luor Plus or the Sunrise (both from TECAN) reader for microplates. Kinetic data was evaluated using GraFit software. […]

The melting point is the temperature, or range, at which the solid turns liquid. In the case of `Cc1csc2c(=O)n(CCCn3ccnc3)c(=S)[nH]c12`, the melting point is 225 to 227 °C. For orientation: IC50 means the concentration that gives 50% inhibition. A higher IC50 goes with weaker potency. Take `O=c1c2ccccc2[nH]c(=S)n1-c1ccc2[nH]cnc2c1` [Example 43, 3-(1H-benzo[d]imidazol-5-yl)-2,3-dihydro-2-thioxo-quinazolin-4(1H)-one]: on glutaminyl cyclase (QC) (QC inhibition), the 50% inhibitory concentration (IC50) amounted to 121 µM.

What is called Ki is a dissociation constant, usually derived from enzyme kinetics or from competition with a known ligand. A low value points to a stronger hold on the target. `O=c1c2ccccc2[nH]c(=S)n1CCCn1ccnc1` [Example 28, 2,3-dihydro-3-(3-(1H-imidazol-1-yl)propyl)-2-thioxoquinazolin-4(1H)-one] yielded a Ki at glutaminyl cyclase (QC) (competitive inhibition fit of progress curves) of 0.3 µM. This lies in the sub-micromolar range.

For the compound `O=c1c2c3c(sc2[nH]c(=S)n1CCCn1ccnc1)CCCC3`, the melting point was in the range of 118 to 120 °C.
